Measurements taken from patent US10821091B2, “Retinoid compositions and methods of increasing immune cell-mediated killing of IDH mutant cancer cells” (UNIVERSITY OF PITTSBURGH—OF THE COMMONWEALTH SYSTEM OF …, priority 2017, dated 2020).

Legend:
IDH mutant tumors = experiment: NK depletion (anti-NK1.1) experiment in tumor-bearing C57BL6/J nude mice; format: in vivo
Procedure: Mice. […] DMSO-treated mice were used as controls.
Anti-tumor effects of ATRA in vivo is dependent upon NK activity in vivo. Contrary to the delayed pro-differentiation effect of ATRA in vitro (FIG. 13A through 13D), the anti-tumor effects in vivo were more immediate. Thus, it was hypothesized that ATRA exercises alternate pathways to curb tumor growth. […] To further substantiate the role of NKs in anti-tumor effect of ATRA, a NK blocking experiment was performed in vivo. Briefly, IDH mutant or WT tumor-bearing C57BL6/J nude mice were injected with […] anti-NK1.1 (or control isotype) antibody intra-peritoneally on the first day of ATRA treatment. ATRA treatment was started when tumors were about 25 mm^2 in size and administered every other day.

IDH mutant gliomas = experiment: Survival in RCAS tva immunocompetent glioma mouse model; format: in vivo, mice
Procedure: Immunocompetent mouse model. The RCAS/tva system was used to ectopically express muIDH1 (R132H) in PDGF-driven gliomas. RCAS retroviral vectors were used to transfer genes to specific cell types in vivo that express the receptor tva to develop a pair of isogenic mouse tumor models that differ only in IDH1 mutation status. Three RCAS vectors expressing PDGF, wtIDH1-shp53, or muIDH1 (R132H)-shp53 were constructed and used in three different Ntva mouse strains. Mice were injected with RCAS-PDGF-producing DF1 cells together with either DF1 cells producing RCAS-wtIDH1-shp53 (wtIDH1) or RCAS-mutantIDH1-shp53 (muIDH1). Tumors were generated from these injections with identical genomic backgrounds, with the initiating events differing only in IDH1 mutation status.

[1] = tested on: ATRA-treated IDH mutant cells; experiment: Transwell chemotaxis assay of immune cell subsets; format: cell-based, human
Procedure: ATRA increases chemotaxis towards IDH mutant cells in a CCL2-dependent manner. […] To confirm these findings, chemotaxis assays were performed in vitro. ATRA-treated IDH mutant or WT cells were plated in the bottom well of a transwell. Different immune cell subsets (as indicated) were placed in the top chamber at a 10:1 E:T ratio. After 48 hours, cells from the bottom chamber were harvested and analyzed by flow cytometry. […] To evaluate the mechanisms of changes in chemotaxis induced by ATRA, a chemokine array was performed. Supernatants from ATRA- (or DMSO)-treated WT and IDH mutant cultures were used to assess changes in chemokine expression using a chemokine array kit (R&D systems). Results were interpreted visually as well as quantified using an imaging software (ImageJ). […] To substantiate the role of CCL2 in NK and T cell chemotaxis, transwell assays were repeated as described earlier, in the presence of CCL2-blocking antibody (R&D systems).

[2] = tested on: diffuse IDH mutant glioma; experiment: ATRA therapy in a human patient, MRI before and after; format: in vivo; conditions: 40 mg/m2 ATRA, 21 days on, 7 days off, three months
Procedure: A patient with diffuse IDH mutant glioma was treated with 40 mg/m2 ATRA on a treatment cycle of 21 days on, 7 days off. MRI images of the patient's brain were performed before (FIG. 12A) and after (FIG. 12B) ATRA treatment.

[3] = mouse, in vivo
Procedure: Mice. 6-8 week old Balb/c nude mice (CAnN.Cg-Foxn1nu/Crl) were purchased from Charles River Laboratories. Mice were injected with 10^6 IDH WT or mutant primary glioma cells sub-cutaneously in the right flank. When the tumors were about 25 mm^2, ATRA treatment was started. 10 mg/Kg ATRA was administered to mice intra-peritoneally (i.p.) every alternate day until termination of the experiment. DMSO-treated mice were used as controls. The mice were monitored for signs of drug toxicity such as weight-loss, lethargy, skin lesions and diarrhea. The tumors were measured every 3 days, and the mice were sacrificed when the tumors were about 400 mm^2. For NK depletion experiments, 6-week old B6 nude mice (B6.Cg-Foxn1nu/J) were purchased from The Jackson Laboratory. NK depletion was performed by injecting mice with 200 μg of anti-NK1.1 antibody (Biolegend) i.p. on the day ATRA treatment was started. Mice injected with 200 μg of an isotype antibody were used as controls. Mice were bled and evaluated for circulating NKs by flow cytometry.
Retinoic acid has been used as a chemotherapeutic agent in a wide variety of cancers, in pre-clinical as well as clinical applications. 13-cis-RA is the most common form of RA used in clinics, and is effective in a variety of neoplasms. Therefore, the efficacy of 13-cis RA was compared with ATRA and Bexarotene (a synthetic retinoic acid analogue) in IDH mutant gliomas.

[4] = tested on: IDH mutant chondrosarcoma cells (HT-1080 and SW 1353); experiment: NK killing of chondrosarcoma cells; format: cell-based; conditions: different doses of ATRA, 48 hours; at least two chondrosarcoma cell lines
Procedure: IDH WT chondrosarcoma cells and IDH mutant chondrosarcoma cells were treated with different doses of ATRA or DMSO for 48 hours and were evaluated for killing by NK cells (FIG. 11F). NK cytotoxicity on IDH WT chondrosarcoma cells and IDH mutant chondrosarcoma cells was evaluated.

[5] = towards ATRA-treated IDH mutant cells vs DMSO-treated controls, 48 hours
[6] = towards ATRA-treated IDH mutant cells, 48 hours

CC1=C(/C=C/C(C)=C/C=C/C(C)=C/C(=O)O)C(C)(C)CCC1 [ATRA, all-trans retinoic acid]
levels of NKs in TILs by flow cytometry (IDH mutant tumors; ATRA-treated mice vs DMSO-treated controls): higher levels of NKs
tumor growth (IDH mutant tumors; IDH mutant tumor-bearing C57BL6/J nude mice, ATRA every other day, vs DMSO-treated controls): significantly slower tumor growth
tumor growth after depletion of NKs (anti-NK1.1) (IDH mutant tumors; IDH mutant tumor-bearing mice treated with ATRA): depletion of NKs abrogated the anti-tumor effects of ATRA
infiltration of NK cells in the tumor (immunohistochemistry) (IDH mutant gliomas; ATRA-treated mice): increased infiltration of NK cells in the tumor
survival (IDH mutant gliomas; mice bearing IDH mutant tumors, ATRA every alternate day for 21 days, vs vehicle-treated/IDH wild type): significantly longer survival
NK and T cell migration in the presence of CCL2-blocking antibody ([1]; ATRA-treated IDH mutant cells): reversed the increased NK (FIG. 6M) and T cell (FIG. 6N) migration
migration of Tregs in the presence of CCL2-blocking antibody ([1]; ATRA-treated IDH mutant cells): did not impact the migration of Tregs
migration of CD8+ T cells [1, 5]: increased migration
migration of M1 macrophages [1, 5]: increased migration
migration of NK cells [1, 5]: increased migration
migration of M2 macrophages [1, 6]: decreased migration
migration of Monocytes [1, 6]: decreased migration
migration of Tregs [1, 6]: decreased migration
glioma tumor on MRI [2]: reduction in the size and severity of the glioma tumor
toxicity in treated mice (weight loss and wasting) [3]: not observed in ATRA-treated mice
NK-mediated cell killing [4]: increased NK-mediated cell killing of IDH mutant chondrosarcoma cells
